Reference: the Kinase Knowledgebase extract (Sharma et al. 2016)

target: MAPK14 (human) (UniProt Q16539); assay: Inhibition of MAPK14 Kinase Activity
Sequence (Q16539 whole entry, looked up): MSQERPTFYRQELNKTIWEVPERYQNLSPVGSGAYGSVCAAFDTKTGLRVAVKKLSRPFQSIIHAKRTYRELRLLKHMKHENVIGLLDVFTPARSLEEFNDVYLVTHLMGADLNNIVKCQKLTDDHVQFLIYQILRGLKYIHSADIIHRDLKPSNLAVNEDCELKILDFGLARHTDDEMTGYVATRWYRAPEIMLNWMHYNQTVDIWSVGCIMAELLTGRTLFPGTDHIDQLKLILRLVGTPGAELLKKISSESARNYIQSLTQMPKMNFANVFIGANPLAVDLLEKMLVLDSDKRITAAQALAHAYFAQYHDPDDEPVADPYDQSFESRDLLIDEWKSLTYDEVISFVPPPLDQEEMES

| Structure (SMILES) | IC50 |
| --- | --- |
| Cc1nc(-c2ccc(F)cc2)c(-c2nc(C(=O)NCCc3cccc(F)c3)cs2)s1 | ≤ 1000 nM |
| CC(=O)Nc1cccc(C(=O)N2CCN(Cc3nc(-c4ccc(F)cc4)c(-c4nc(C(=O)NC(C)C)cs4)o3)CC2)c1 | ≤ 1000 nM |
| Cc1nc(-c2ccc(F)cc2)c(-c2nc(C(=O)NC3CCCC3)cs2)s1 | ≤ 1000 nM |
| CC(C)NC(=O)c1csc(-c2oc(CNC(=O)C=Cc3ccccc3O)nc2-c2ccc(F)cc2)n1 | ≤ 1000 nM |
| O=C(NC1CCC1)c1csc(-c2c(-c3ccc(F)cc3)n[nH]c2C2CCNCC2)n1 | ≤ 1000 nM |
| CC(C)NC(=O)c1csc(-c2oc(CN3CCN(C(=O)c4ccccc4C=O)CC3)nc2-c2ccc(F)cc2)n1 | ≤ 1000 nM |
| O=C(NCCO)c1csc(-c2c(-c3ccc(F)cc3)n[nH]c2C2CCNCC2)n1 | ≤ 1000 nM |
| CC(C)NC(=O)c1csc(-c2c(-c3ccc(F)cc3)n[nH]c2C2CCN(C(=O)c3cc(O)c(O)c(O)c3)CC2)n1 | ≤ 1000 nM |
| CCN(CC)c1ccc(C(=O)N2CCN(Cc3nc(-c4ccc(F)cc4)c(-c4nc(C(=O)NC(C)C)cs4)o3)CC2)cc1 | ≤ 1000 nM |
| CC(C)NC(=O)n1ccc(-c2c(-c3ccc(F)cc3)noc2CN(C)C)n1 | ≤ 1000 nM |
| CC1=C(CCC(=O)N2CCN(Cc3nc(-c4ccc(F)cc4)c(-c4nc(C(=O)NC(C)C)cs4)o3)CC2)C=CCO1 | ≤ 1000 nM |
| CC(C)NC(=O)c1csc(-c2oc(CN3CCN(C(=O)c4cccc(Cl)c4[N+](=O)[O-])CC3)nc2-c2ccc(F)cc2)n1 | ≤ 1000 nM |
| CCC(CO)NCc1nc(-c2ccc(F)cc2)c(-c2nc(C(=O)NC(C)C)cs2)o1 (centres undefined) | ≤ 1000 nM |
| CC(=O)NCc1nc(-c2ccc(F)cc2)c(-c2nc(C(=O)NC(C)C)cs2)[nH]1 | ≤ 1000 nM |
| CC(C)NC(=O)c1csc(-c2oc(CNC(=O)C(C)(C)C)nc2-c2ccc(F)cc2)n1 | ≤ 1000 nM |
| O=C(NC1CCCC1)c1csc(-c2c(-c3ccc(F)cc3)ncn2C2CCNCC2)n1 | ≤ 1000 nM |
| CC(C)NC(=O)c1csc(-c2c(-c3ccc(F)cc3)n[nH]c2C2CCN(C(=O)C(C)(C)O)CC2)n1 | ≤ 1000 nM |
| Cc1[nH]nc(-c2ccc(F)cc2)c1-c1nc(C(=O)NCc2ccccn2)cs1 | ≤ 1000 nM |
| COCC(=O)N1CCC(c2[nH]nc(-c3ccc(F)cc3)c2-c2nc(C(=O)NC(C)C)cs2)CC1 | ≤ 1000 nM |
| CCC(CO)NC(=O)c1csc(-c2sc(C)nc2-c2ccc(F)cc2)n1 (centres undefined) | ≤ 1000 nM |
| Cc1nc(-c2ccc(F)cc2)c(-c2nc(C(=O)NCc3ccccn3)cs2)s1 | ≤ 1000 nM |
| C#CCNC(=O)c1csc(-c2c(-c3ccc(F)cc3)ncn2C2CCN(C(=O)CO)CC2)n1 | ≤ 1000 nM |
| CC(C)NC(=O)c1csc(-c2oc(CN3CCOCC3)nc2-c2ccc(F)cc2)n1 | ≤ 1000 nM |

| Structure (SMILES) | IC50 |
| --- | --- |
| CC(C)NC(=O)c1csc(-c2oc(CNC3CCN(Cc4ccccc4)C3)nc2-c2ccc(F)cc2)n1 (centres undefined) | ≤ 1000 nM |
| CC(C)NC(=O)c1csc(-c2oc(CNC(=O)c3ccc(F)cc3F)nc2-c2ccc(F)cc2)n1 | ≤ 1000 nM |
| CC(C)NC(=O)c1csc(-c2oc(CN3CCN(C(=O)c4ccncc4)CC3)nc2-c2ccc(F)cc2)n1 | ≤ 1000 nM |
| CC(C)NC(=O)c1csc(-c2oc(CNC(=O)Cc3cccc4ccccc34)nc2-c2ccc(F)cc2)n1 | ≤ 1000 nM |
| CCCC(C)NC(=O)c1csc(-c2c(-c3ccc(F)cc3)n[nH]c2C2CCNCC2)n1 (centres undefined) | ≤ 1000 nM |
| Cc1nc(-c2ccc(F)cc2)c(-c2nc(C(=O)NCCc3ccc(Cl)cc3)cs2)s1 | ≤ 1000 nM |
| Cc1nc(-c2ccc(F)cc2)c(-c2nc(C(=O)NCCc3ccc4c(c3)OCO4)cs2)s1 | ≤ 1000 nM |
| CC(C)NC(=O)c1csc(-c2oc(CNC(=O)c3ccc(C=O)cc3)nc2-c2ccc(F)cc2)n1 | ≤ 1000 nM |
| CC(C)NC(=O)c1csc(-c2c(-c3ccc(F)cc3)ncn2C2CCN(C(=O)CO)CC2)n1 | ≤ 1000 nM |
| Cc1nc(-c2ccc(F)cc2)c(-c2nc(C(=O)NCc3ccc(C(F)(F)F)cc3)cs2)s1 | ≤ 1000 nM |
| CC(C)NC(=O)c1csc(-c2c(-c3ccc(F)cc3)n[nH]c2C2CCN(C(=O)c3ccccn3)CC2)n1 | ≤ 1000 nM |
| Cc1nc(-c2ccc(F)cc2)c(-c2nc(C(=O)NCc3ccco3)cs2)s1 | ≤ 1000 nM |
| CC(C)NC(=O)c1csc(-c2oc(CN3CCN(C(=O)CC#N)CC3)nc2-c2ccc(F)cc2)n1 | ≤ 1000 nM |
| Cc1ccc(CNC(=O)c2csc(-c3sc(C)nc3-c3ccc(F)cc3)n2)cc1 | ≤ 1000 nM |
| C#CCNC(=O)c1csc(-c2[nH]c(CN3CCNCC3)nc2-c2ccc(F)cc2)n1 | ≤ 1000 nM |
| CC(C)NC(=O)c1csc(-c2oc(CN3CCN(C(=O)Cc4ccc(O)c(F)c4)CC3)nc2-c2ccc(F)cc2)n1 | ≤ 1000 nM |
| Cc1cc(C(=O)NCc2nc(-c3ccc(F)cc3)c(-c3nc(C(=O)NC(C)C)cs3)o2)n[nH]1 | ≤ 1000 nM |
| COc1ccc(C=CC(=O)NCc2nc(-c3ccc(F)cc3)c(-c3nc(C(=O)NC(C)C)cs3)o2)cc1O | ≤ 1000 nM |
| COCCNC(=O)c1csc(-c2c(-c3ccc(F)cc3)n[nH]c2C2CCNCC2)n1 | ≤ 1000 nM |
| CC(C)NC(=O)c1csc(-c2[nH][nH]c(=O)c2-c2ccc(F)cc2)n1 | ≤ 1000 nM |
| Cc1nc(-c2ccc(F)cc2)c(-c2nc(C(=O)NCCCN3CCCC3=O)cs2)s1 | ≤ 1000 nM |
| CC(C)NC(=O)c1csc(-c2oc(CN3CCN(C(=O)c4cccc5ccccc45)CC3)nc2-c2ccc(F)cc2)n1 | ≤ 1000 nM |
| Cc1nc(-c2ccc(F)cc2)c(-c2nc(C(=O)NCc3ccc(F)cc3)cs2)s1 | ≤ 1000 nM |

| Structure (SMILES) | IC50 |
| --- | --- |
| CC(CC(=O)N1CCN(Cc2nc(-c3ccc(F)cc3)c(-c3nc(C(=O)NC(C)C)cs3)o2)CC1)CC(C)(C)C (centres undefined) | ≤ 1000 nM |
| CC(C)NC(=O)c1csc(-c2oc(CN3CCN(C(=O)CC4Cc5ccccc5C4)CC3)nc2-c2ccc(F)cc2)n1 | ≤ 1000 nM |
| Cc1nc(-c2ccc(F)cc2)c(-c2nc(C(=O)NCC#N)cs2)s1 | ≤ 1000 nM |
| CC(C)NC(=O)c1csc(-c2c(-c3ccc(F)cc3)n[nH]c2C2CCN(C(=O)c3cccc4ccccc34)CC2)n1 | ≤ 1000 nM |
| CC(C)NC(=O)c1csc(-c2oc(CN3CCN(C(=O)C(F)(F)F)CC3)nc2-c2ccc(F)cc2)n1 | ≤ 1000 nM |
| CC(C)NC(=O)c1csc(-c2oc(CNC(=O)C(C)O)nc2-c2ccc(F)cc2)n1 (centres undefined) | ≤ 1000 nM |
| CC(C)NC(=O)c1csc(-c2c(-c3ccc(F)cc3)n[nH]c2C2CCN(C(=O)C3CN(C(=O)OC(C)(C)C)CCN3)CC2)n1 (centres undefined) | ≤ 1000 nM |
| O=C(NC1CC1)c1csc(-c2c(-c3ccc(F)cc3)n[nH]c2C2CCNCC2)n1 | ≤ 1000 nM |
| CC(C)NC(=O)c1csc(-c2c(-c3ccc(F)cc3)n[nH]c2C2CCN(C(=O)C(C)(C)C)CC2)n1 | ≤ 1000 nM |
| Cc1nc(-c2ccc(F)cc2)c(-c2nc(C(=O)NCc3ccccc3)cs2)s1 | ≤ 1000 nM |
| CC(C)NC(=O)c1csc(-c2oc(CNC(=O)c3cc(Cl)ccc3[N+](=O)[O-])nc2-c2ccc(F)cc2)n1 | ≤ 1000 nM |
| CCNC(=O)c1csc(-c2c(-c3ccc(F)cc3)n[nH]c2C)n1 | ≤ 1000 nM |
| CC(C)NC(=O)c1csc(-c2oc(CNC(=O)c3ccccc3C(F)(F)F)nc2-c2ccc(F)cc2)n1 | ≤ 1000 nM |
| CC(C)NC(=O)c1csc(-c2oc(CNC(=O)c3ccccc3[N+](=O)[O-])nc2-c2ccc(F)cc2)n1 | ≤ 1000 nM |
| COc1ccccc1CC(=O)NCc1nc(-c2ccc(F)cc2)c(-c2nc(C(=O)NC(C)C)cs2)o1 | ≤ 1000 nM |
| COCCOCC(=O)N1CCC(c2[nH]nc(-c3ccc(F)cc3)c2-c2nc(C(=O)NC(C)C)cs2)CC1 | ≤ 1000 nM |
| Cc1nc(-c2ccc(F)cc2)c(-c2nc(C(=O)NC(C)CO)cs2)s1 (centres undefined) | ≤ 1000 nM |
| Cc1nc(-c2ccc(F)cc2)c(-c2nc(C(=O)Nc3cnc4ccccc4c3)cs2)s1 | ≤ 1000 nM |
| N#CCNC(=O)c1csc(-c2c(-c3ccc(F)cc3)n[nH]c2C2CCNCC2)n1 | ≤ 1000 nM |
| Cc1nc(-c2ccc(F)cc2)c(-c2nc(C(=O)N3CCN(c4ccccc4C#N)CC3)cs2)s1 | ≤ 1000 nM |
| Cc1nc(-c2ccc(F)cc2)c(-c2nc(C(=O)Nc3ccc(C(F)(F)F)cc3C(F)(F)F)cs2)s1 | ≤ 1000 nM |
| COC(=O)N1CCC(c2[nH]nc(-c3ccc(F)cc3)c2-c2nc(C(=O)NC(C)C)cs2)CC1 | ≤ 1000 nM |
| COc1ccc(CNC(=O)c2csc(-c3sc(C)nc3-c3ccc(F)cc3)n2)cc1OC | ≤ 1000 nM |

| Structure (SMILES) | IC50 |
| --- | --- |
| CC(C)NC(=O)c1csc(-c2oc(CNC(=O)c3ccncc3)nc2-c2ccc(F)cc2)n1 | ≤ 1000 nM |
| CC(C)NC(=O)c1csc(-c2oc(CNC(=O)c3ccc(F)c([N+](=O)[O-])c3)nc2-c2ccc(F)cc2)n1 | ≤ 1000 nM |
| CCOC(=O)CC(=O)NCc1nc(-c2ccc(F)cc2)c(-c2nc(C(=O)NC(C)C)cs2)o1 | ≤ 1000 nM |
| COc1cc(C(=O)NCc2nc(-c3ccc(F)cc3)c(-c3nc(C(=O)NC(C)C)cs3)o2)cc(OC)c1O | ≤ 1000 nM |
| COCc1onc(-c2ccc(Cl)cc2)c1-c1ccn(C(=O)NC(C)C)n1 | ≤ 1000 nM |
| CCC(=O)C(=O)NCc1nc(-c2ccc(F)cc2)c(-c2nc(C(=O)NC(C)C)cs2)o1 | ≤ 1000 nM |
| CC(C)NC(=O)c1csc(-c2oc(CNC(=O)C=Cc3cccc(O)c3)nc2-c2ccc(F)cc2)n1 | ≤ 1000 nM |
| CCN(CC)CCNC(=O)c1csc(-c2sc(C)nc2-c2ccc(F)cc2)n1 | ≤ 1000 nM |
| CC(C)NC(=O)c1csc(-c2[nH]c(CN3CCOCC3)nc2-c2ccc(F)cc2)n1 | ≤ 1000 nM |
| Cc1nc(-c2ccc(F)cc2)c(-c2nc(C(=O)NCc3ccc4c(c3)OCO4)cs2)s1 | ≤ 1000 nM |
| COc1ccc(CNCc2nc(-c3ccc(F)cc3)c(-c3nc(C(=O)NC(C)C)cs3)o2)cc1O | ≤ 1000 nM |
| CC(C)NC(=O)c1csc(-c2oc(CN3CCN(C(=O)C4CCc5ccccc54)CC3)nc2-c2ccc(F)cc2)n1 (centres undefined) | ≤ 1000 nM |
| CC(C)NC(=O)c1csc(-c2c(-c3ccc(F)cc3)n[nH]c2C2CCN(C(=O)c3ncc[nH]3)CC2)n1 | ≤ 1000 nM |
| O=C(NC1CCCCC1)c1csc(-c2c(-c3ccc(F)cc3)ncn2C2CCNCC2)n1 | ≤ 1000 nM |
| COc1ccc(C=CC(=O)N2CCN(Cc3nc(-c4ccc(F)cc4)c(-c4nc(C(=O)NC(C)C)cs4)o3)CC2)cc1O | ≤ 1000 nM |
| CC(C)NC(=O)c1csc(-c2oc(CN3CCN(C(=O)c4c(F)c(F)c(F)c(F)c4F)CC3)nc2-c2ccc(F)cc2)n1 | ≤ 1000 nM |
| Cc1nc(-c2ccc(F)cc2)c(-c2nc(C(=O)NCCCN3CCOCC3)cs2)s1 | ≤ 1000 nM |
| CC(C)NC(=O)c1csc(-c2oc(CN3CCN(C(=O)c4cnc[nH]4)CC3)nc2-c2ccc(F)cc2)n1 | ≤ 1000 nM |
| Cc1nc(-c2ccc(F)cc2)c(-c2nc(C(=O)Nc3ccccc3-c3ccccc3)cs2)s1 | ≤ 1000 nM |
| CC(C)NC(=O)c1csc(-c2oc(CN3CCN(C(=O)C=O)CC3)nc2-c2ccc(F)cc2)n1 | ≤ 1000 nM |
